Results as given in US4619929A, “Phenylpiperazine derivatives of hetarylphenols and hetarylanilines, their preparation, and therapeutic agents containing these compounds” (BASF Aktiengesellschaft, priority 1981, dated 1986).
Where two headings read alike, the source gives them in different places.

How the values were obtained:
[1] = Hypotensive action on rats under urethane narcosis, blood pressure measured in the carotid artery (ED 20%); type: in vivo, Sprague-Dawley rats; settings: for Hypotensive effect R.A. (relative activity; chlorpromazine = 1.00) / ED20: rat; for Separation between sedative action and hypotensive action versus chlorpromazine: in words; for Hypotensive action in words: blood pressure lowering doses versus chlorpromazine: narcotized rats; for Hypotensive side effect, in words: versus chlorpromazine
Experimental: The blood pressure was measured in the carotid artery. The substance was administered either by introduction into a jugular vein (as an aqueous solution, at the rate of 1 ml/kg) or intraperitoneally as a suspension in tragacanth (at the rate of 10 ml/kg). The ED 20%, i.e. the dose which produces a 20% lowering of the blood pressure, was determined from the linear regression of log dose (mg/kg) and relative lowering of the blood pressure (Δ %).

[2] = Sedative action: orientation hypermotility of mice induced by a new environment (ED 50%); type: in vivo, female NMRI mice; settings: for Sedative effect R.A. (relative activity; chlorpromazine = 1.00) / ED50: mouse, oral administration; for Inhibition of the orientation hypermotility of mice (sedative-neuroleptic action), in words / Sedative action compared with chlorpromazine, in words: mice
Experimental: The substance was administered orally to 4-8 groups each comprising 3 female NMRI mice. The orientation hypermotility induced by a new environment was determined photoelectrically, 30 minutes after administration of the substance, over a period of 30 minutes. The ED 50%, i.e. the dose which produces 50% reduction in orientation hypermotility compared to placebo-treated control […], is determined.

[3] = Table 1, quotient defined by formula drawing 8 (sedative ED 50% mouse oral, hypotensive ED 20% rat i.v.)
[4] = Table 1, intravenous administration
[5] = Table 1, intravenous administration, read-out: Hypotensive effect ED 20% (dose which reduces the blood pressure by 20%)
[6] = Table 1, read-out: Sedative effect ED 50% (dose which reduces the motility by 50%)
[7] = Table 2, defined by formula drawing 9, hypotensive effect i.v.
[8] = Table 2, intravenous (i.v.), read-out: Hypotensive effect ED 20%
[9] = Table 2, read-out: Sedative effect ED 50%
[10] = Table 2, defined by formula drawing 9, hypotensive effect i.p.
[11] = Table 2, intraperitoneal (i.p.)
[12] = ip, Table 2, intraperitoneal (i.p.), read-out: Hypotensive effect ED 20%

SMILES	Q [1, 3]	Hypotensive effect R.A. (relative activity; chlorpromazine = 1.00) [1, 4]	ED20 [1, 5] [mg/kg]	Separation between sedative action and hypotensive action versus chlorpromazine [1]	Hypotensive action in words: blood pressure lowering doses versus chlorpromazine [1]	Sedative effect R.A. (relative activity; chlorpromazine = 1.00) ([2]; Table 1)	ED50 [2, 6] [mg/kg]	Q [1, 7]	Hypotensive effect R.A. (relative activity; chlorpromazine = 1.00) ([1]; Table 2, intravenous (i.v.))	ED20 [1, 8] [mg/kg]	Hypotensive side effect, in words [1]	Sedative effect R.A. (relative activity; chlorpromazine = 1.00) ([2]; Table 2)	ED50 [2, 9] [mg/kg]	Inhibition of the orientation hypermotility of mice (sedative-neuroleptic action), in words [2]	Sedative action compared with chlorpromazine, in words [2]	Q [1, 10]	Hypotensive effect R.A. (relative activity; chlorpromazine = 1.00) [1, 11]	ED20 [1, 12] [mg/kg]
COc1ccccc1N1CCN(CCCOc2ccccc2-c2nnco2)CC1 [Example 1]	2,050	3.25	0.008	substantially greater	significantly lower than in the case of chlorpromazine	0.13	16.4											
COc1ccccc1N1CCN(CCCOc2ccccc2-c2nnc(C)o2)CC1 [Example 3, 1-[2-(5-Methyl-1,3,4-oxadiazol-2-yl)-phenoxy]-3-[4-(2-methoxyphenyl)-piperazin-1-yl]-propane]	534	0.68	0.0384	substantially greater		0.10	20.5											
COc1ccccc1N1CCN(CCCOc2cccc(-c3nnco3)c2)CC1 [Example 6, 1-[3-(1,3,4-Oxadiazol-2-yl)-phenoxy]-3-[4-(2-methoxyphenyl)-piperazin-1-yl]-propane]	417	3.38	0.0077	substantially greater	significantly lower than in the case of chlorpromazine	0.66	3.21											
COc1ccccc1N1CCN(CCCOc2cccc(-c3nnc(C)o3)c2)CC1 [Example 7, 1-[3-(5-Methyl-1,3,4-oxadiazol-2-yl)-phenoxy]-3-[4-(2-methoxyphenyl)-piperazin-1-yl]-propane]	312	2.17	0.0012	substantially greater	significantly lower than in the case of chlorpromazine	0.56	3.74											
Fc1ccc(N2CCN(CCCOc3ccc(-n4ccnc4)cc3)CC2)cc1 [Example 10]								3.0	0.03	1	non-hypotensive action up to doses of 1 or 10 mg/kg	0.69	3.05	powerful inhibition of the orientation hypermotility of mice	almost achieved			
COc1ccccc1N1CCN(CCCOc2ccc(-c3nnco3)cc2)CC1 [Example 11, 1-[4-(1,3,4-Oxadiazol-2-yl)-phenoxy]-3-[4-(2-methoxyphenyl)-piperazin-1-yl]-propane]	307	3.71	0.007	substantially greater	significantly lower than in the case of chlorpromazine	0.98	2.15											
Fc1ccc(N2CCN(CCCNc3ccc(-n4cncn4)cc3)CC2)cc1 [Example 14, 1-[4-(1,2,4-Triazol-1-yl)-phenylamino]-3-[4-(4-fluorophenyl)-piperazin-1-yl]-propane]											non-hypotensive action up to doses of 1 or 10 mg/kg	2.59	0.818	powerful inhibition of the orientation hypermotility of mice	clearly surpassed	0.08	0.02	10
Fc1ccc(N2CCN(CCCNc3ccc(-n4ccnc4)cc3)CC2)cc1 [Example 15, 1-[4-(Imidazol-1-yl)-phenylamino]-3-[4-(4-fluorophenyl)-piperazin-1-yl]-propane]								0.16	0.003	10	non-hypotensive action up to doses of 1 or 10 mg/kg	1.3	1.62	powerful inhibition of the orientation hypermotility of mice	clearly surpassed			
CN(C)CCCN1c2ccccc2Sc2ccc(Cl)cc21 [chlorpromazine, reference compound]	81	1.00	0.026			1.00		81.0	1.0	0.026	observed even at low doses	1.0	2.11			12.9	1.0	0.164
